Reference: patent US20090305271A1, “In Vitro Assay Based on Camp Levels Modulated by Gi-Coupled Receptors” (priority 2006, published 2009)

What was measured:
Assay type in all cases: cell-based
[1] = test system: adenylyl cyclase isoform V and/or VI; experiment: cAMP production with NKH-477 instead of forskolin as in vitro activator of cAMP formation; settings: cells expressing the adenylyl cyclase isoform V and/or VI
[2] = molecular target: T1, human dopamine D4.4 receptor (Homo sapiens, UniProt P21917); experiment: cAMP assay with NKH477 or forskolin as activator, D4.4 receptor stably expressed in CHO-K1; settings: D4.4 in CHO-K1, 1 μM of agonist (dopamine)
T1 construct: expressed in transfected cells; host or cells: CHO-K1
T1 sequence (P21917 1-419): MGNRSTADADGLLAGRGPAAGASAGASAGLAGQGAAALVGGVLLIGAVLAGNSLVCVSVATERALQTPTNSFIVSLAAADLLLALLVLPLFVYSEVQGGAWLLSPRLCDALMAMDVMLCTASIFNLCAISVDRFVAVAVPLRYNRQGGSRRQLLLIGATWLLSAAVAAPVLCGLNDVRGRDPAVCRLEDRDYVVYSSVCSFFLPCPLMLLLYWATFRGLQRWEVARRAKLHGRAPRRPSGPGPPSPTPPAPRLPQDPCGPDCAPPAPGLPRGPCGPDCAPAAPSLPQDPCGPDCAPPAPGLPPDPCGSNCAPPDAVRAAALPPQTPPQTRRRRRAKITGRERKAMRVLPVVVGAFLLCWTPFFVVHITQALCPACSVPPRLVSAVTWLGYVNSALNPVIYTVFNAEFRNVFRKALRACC
Experimental: cAMP measurements on CHO-K1 cells that stably expressed the human muscarinic M4 or the human dopamine D4.4 receptor were performed via the HTRF (homogeneous time-resolved fluorescence) technology (CIS Bio, France). The principle of these cAMP assays is based on a competition between cAMP produced by cells and cAMP-XL665 conjugate for the binding with monoclonal anti-cAMP-cryptate conjugate. The HTRF) conjugates are prepared in lysis buffer so that the cell lysis and the detection step can be performed simultaneously.
(§1) To measure the production of cAMP from cells, cells were harvested and resuspended with HBSS Buffer. Varying concentrations of cells were plated in a 96-well plate. Serial dilutions of agonists (Dopamine or Epinephrine) were added and incubated for 10′ at room temperature with the cells. Forskolin or NKH477 were added, and the plate was incubated at 37° C. for 10 minutes. After cell induction, the assay reagents were added as outlined in the assay procedure.
For the D4—CHO K1 cell line (D4 stably transfected in CHO K1 host cell line) 0.7 μM of NKH477 and Forskolin were used with or without 1 μM of Dopamine
(§2) c) CHO-K1 cells expressing D4.4, alpha2c H3 and D2S receptors were exposed to increasing concentrations of ligands, respectively dopamine, epinephrine, histamine and dopamine ranging from 0.01 nM to 10 μM in the presence of 30 μM forskolin or 10 μM NKH-477.

alpha 2c receptor = molecular target: T2, alpha 2c receptor (Homo sapiens, UniProt P18825); experiment: cAMP assay with NKH477 or forskolin as activator, alpha 2c receptor stably expressed in CHO-S; settings: alpha 2c in CHO-S, 1 μM of agonist (epinephrine)
T2 construct: expressed in transfected cells; host or cells: CHO-S
T2 sequence (P18825 1-462): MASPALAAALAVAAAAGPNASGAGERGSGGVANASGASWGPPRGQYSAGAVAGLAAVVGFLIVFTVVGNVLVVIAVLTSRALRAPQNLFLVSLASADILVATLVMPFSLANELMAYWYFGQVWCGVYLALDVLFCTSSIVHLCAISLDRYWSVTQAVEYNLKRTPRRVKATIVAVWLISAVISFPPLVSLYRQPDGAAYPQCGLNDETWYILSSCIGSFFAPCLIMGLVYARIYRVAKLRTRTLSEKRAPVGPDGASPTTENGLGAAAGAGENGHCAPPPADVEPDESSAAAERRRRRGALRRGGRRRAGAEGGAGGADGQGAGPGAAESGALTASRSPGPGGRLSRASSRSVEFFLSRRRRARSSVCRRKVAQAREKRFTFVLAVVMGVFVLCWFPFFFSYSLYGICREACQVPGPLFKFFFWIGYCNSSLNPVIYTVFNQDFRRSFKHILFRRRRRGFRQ
Experimental: as §1
For the alpha2c—CHO S cell line (alpha 2c stably transfected in CHO S host cell line) was incubate with 5 μM of NKH477 and Forskolin 10′ at 37° C. without or with 1 μM of Epinephrine
as §2

human muscarinic M4 = molecular target: T3, human muscarinic M4 (Homo sapiens, UniProt P08173); experiment: cAMP HTRF functional assay, forskolin-induced cAMP production in M4/CHO/miRNA cell line
T3 construct: expressed in transfected cells; host or cells: CHO-K1 (M4/CHO and M4/CHO/miRNA cell lines)
T3 sequence (P08173 1-479): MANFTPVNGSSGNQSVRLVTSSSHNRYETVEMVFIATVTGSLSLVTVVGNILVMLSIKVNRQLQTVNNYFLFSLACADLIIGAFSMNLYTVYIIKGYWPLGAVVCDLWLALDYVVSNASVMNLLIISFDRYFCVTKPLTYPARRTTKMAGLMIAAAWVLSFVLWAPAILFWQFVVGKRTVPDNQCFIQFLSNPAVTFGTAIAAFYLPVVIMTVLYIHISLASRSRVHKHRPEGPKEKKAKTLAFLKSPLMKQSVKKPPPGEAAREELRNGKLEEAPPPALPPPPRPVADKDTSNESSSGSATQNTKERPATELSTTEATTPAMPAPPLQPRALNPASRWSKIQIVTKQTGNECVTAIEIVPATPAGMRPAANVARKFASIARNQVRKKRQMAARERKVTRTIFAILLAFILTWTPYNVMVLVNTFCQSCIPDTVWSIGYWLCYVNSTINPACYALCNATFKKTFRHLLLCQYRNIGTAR
Experimental: CHO-K1 stably expressing the human muscarinic M4 or the human dopamine D4.4 receptor were cultured under standard conditions. Cells were harvested by EDTA, washed once in phosphate buffered saline and resuspended in assay buffer (HBSS containing 0.1% glucose and 0.5 mM IBMX). The cells were dispensed into a black 96 half-well plate at a cell density of 10,000-15,000 cells. After incubation for 30 min at room temperature or at 37° C., an equal volume of assay buffer containing forskolin, then acetylcholine or quimpirole was added to the cells. After incubation for 30 min at room temperature or 37° C., cAMP detection was performed following the protocol described above. The plate was incubated for one more hour at room temperature and then measured on a RUBYstar^a (BMG Labtechnologies) time-resolved fluorescence reader. […]

Structure (SMILES)	increase of the production of cAMP instead of forskolin [1]	enhancement of cAMP production inhibition with NKH477 instead of forskolin [2]	signal window compared with Forskolin [2]	enhancement of cAMP production inhibition with NKH477 instead of forskolin (alpha 2c receptor)	signal window compared with Forskolin (alpha 2c receptor)	inhibition at 1 µM (human muscarinic M4; 1 μM, M4/CHO/miRNA cell line, read-out: inhibition of Forskolin stimulated cAMP production)	increase of inhibitory potency on Forskolin induced cAMP production compared to wild CHO cells expressing M4 receptor (human muscarinic M4; M4/CHO/miRNA versus M4/CHO)
C=C[C@@]1(C)CC(=O)[C@]2(O)[C@@]3(C)[C@@H](O)CCC(C)(C)[C@@H]3[C@H](OC(=O)CCN(C)C)[C@H](OC(C)=O)[C@@]2(C)O1.Cl [NKH477, 6-(3-dimethylaminopropionyl) forskolin hydrochloride]	up to 20%	up to 20%	greater signal window than Forskolin	up to 20%	greater signal window than Forskolin		
O=C1CCCN1CC#CCN1CCCC1 [Oxotremorine]						> 85%	25-30%
